Source: US10478446B2, “Compounds for use in polycystic kidney disease” (FONDAZIONE CENTRO SAN RAFFAELE OFFICE OF BIOTECHNOLOGY …, priority 2012, dated 2019)
“Also recorded” adds a separate entry of the source.

Legend:
[1] = system: wt mice (ksp-cre: Pkd1^+/flox); assay: 2DG treatment of wt mice; assay type: in vivo, mouse; details: 2DG 500 mg/kg daily P6 to P8
Procedure: (§1) Generation of Pkd1^flox/−:Ksp-Cre mice was previously described. Briefly, we crossed Pkd1^flox/flox29 and Pkd1^+/−: Ksp-Cre mice in pure C57/B16 genetic background. For treatments 2DG (Sigma-Aldrich) or vehicle (NaCl) were injected subcutaneously daily from P6 until P8 at 500 mg/kg.
(§2) 2DG (Sigma-Aldrich) or vehicle (NaCl) were injected subcutaneously daily from P6 until P8 at 500 mg/kg.
(§3) After sacrifice, kidneys were removed, washed in phosphate-buffered saline (PBS), weighed and fixed in 4% Para formaldehyde (PFA). After incubation in a sucrose in PBS gradient scale from 10% to 30% samples were incubated in 10% glycerol (Sigma) in a mixture of OCT (BIO-OPTICA) and sucrose 30%, finally embedded in OCT. Criostat sections were air-dried 1 h, rehydrated in PBS, incubated in Harris Hematoxylin 1:10 (Sigma Aldrich) for 2 min, washed, incubated in Eosin G (BIO-OPTICA) for 7 min, washed dehydrated and mounted in DEPEX (Sigma).

Pkd1^flox/−:Ksp-Cre mice = assay: 2DG treatment of mice with cystic kidneys; assay type: in vivo, mouse
Procedure: For proliferation assays immunostaining was carried our using an anti-Ki67 antibody followed by analysis. For cells, fluorescence was measured on triplicates of 300 cells using the microscope Axioplot (Zeiss). For kidney sections, pictures at 20× were taken using the camera Axio MRc5 (Zeiss) with the microscope Axioplan 2 (Zeiss), positive cells were counted on 6 sections for each group for each experiment using the ImageJ software.
as §1, §2, §3
For Immunohistochemistry 10 μm cryosections were washed in Tween-0.1% in PBS (like all washes), fixed in PAF4%, permeabilized in Triton 0.1% in PBS, incubated in hydrogen peroxide 0.3% for 30 min, blocked for 1 h at room temperature with 5% Normal Goat Serum (Sigma Aldrich) 3% bovine serum albumin (BSA, Sigma) in phosphate-buffered saline, incubated O/N at 4° C. with the Antibody (ab) in blocking buffer diluted at 1:500. Sections were then incubated with the Dako EnVision+System-HRP (Dako). Staining is completed by an incubation with 3,3′ diaminobenzidine tetrahydrochloride (DAB) DAB+Substrate Chromogen System (DakoCytomation) and counterstained with Harris Hematoxylin (Sigma Aldrich). diluted 1/10 for 3 min.
A grid of squares 13.625 μm large was applied to sections of kidneys stained with Hematoxylin-Eosin. Each cross is marked with a dot, number of dots inside the lumen are counted on three litters (218 000 μm^2 for each). The degree of dilatation is determined according to Lu et al., 1999 ^32:1 dot: normal tubules; 2 dots: dilatated tubules; 3-9 dots: Small cysts; ≥10 dots: Cysts.

Pkd1^−/− MEFs [2] = assay: Western blot of signalling phosphoproteins (pAMPK, pERK, pS6RP, pLKB1); assay type: cell-based, mouse
Procedure: (§5) Antibodies anti-p-Akt 5473, anti-p-AMPK-Thr172; anti-AMPK, anti-p-S6RP Ser 235/236; anti-S6Rp; anti-p-ERK T202/Y204 and anti-ERK antibodies were from Cell Signaling Technology and used at 1:1000; anti-LC3 NB100 was from Novus Biologicals; anti-actin and anti-tubulin antibodies were from Sigma Aldrich and used at 1:5000. Anti-ki67 was from Novocastra and was used at 1:400. UO126 and rapamycin (Cell Signaling Technologies) were employed at final concentrations of 30 μM and 20 or 50 nM, respectively. AICAR and Metfomin (Sigma Aldrich) were used at the final concentration of 2 mM, oligomycin (Sigma Aldrich) was used at the final concentration of 30 μg/ml.
For western blot analysis, the cells were lysed [lysis buffer: 250 mM sucrose, 20 mM imidazole and 1 mM EDTA, pH 7.4, 0.5% Triton-X 100, supplemented with Protease Inhibitors Cocktail (Amersham) and phosphatase inhibitors (1 mM final of glycerophosphate, sodium orthovanadate and sodium fluoride)]. Total lysates were quantified and Laemmli buffer was added to reach a 1× final concentration. Proteins were resolved in a SDS-PAGE gel and transferred onto PVDF membranes. Next, 5% milk in TBS-T was used for blocking and for secondary antibody incubations, while 2% BSA in TBS-T was used for incubations with primary antibodies. HRP-conjugated secondary antibodies (from Roche) were visualized using the ECL System (Amersham), which were mixed with Super-Femto ECL System from Pierce when necessary.

Pkd1^+/+ MEFs [3] = details: UO126
Procedure: as §5
For western blot analysis, the cells were lysed [lysis buffer: 250 mM sucrose, 20 mM imidazole and 1 mM EDTA, pH 7.4, 0.5% Triton-X 100, supplemented with Protease Inhibitors Cocktail (Amersham) and phosphatase inhibitors (1 mM final of glycerophosphate, sodium orthovanadate and sodium fluoride)]. Total lysates were quantified and Laemmli buffer was added to reach a 1× final concentration. Proteins were resolved in a SDS-PAGE gel and transferred onto PVDF membranes. Next, 5% milk in TBS-T was used for blocking and for secondary antibody incubations, while 2% BSA in TBS-T was used for incubations with primary antibodies. […]

PKD mouse model = details: Takiar et al. 2011; cited from earlier work
Pkd1^+/+ MEFs [4] = assay: ATP content of MEFs after oligomycin; assay type: cell-based, mouse; details: oligomycin for 5 h, before treatment 102891+/−1042 RLU
Procedure: For ATP content evaluation, whole-cell extracts of control and treated MEFs cells were prepared by suspending pellets in lysis buffer as described in Distefano et al, 2009. […] Medium of control and treated MEFs was taken after 24 h at 100% of confluence. The concentration of lactate using EnzyChrom™ L-lactate Assay Kit (BioAssay Systems) and quantified on the final number of cells.

Pkd1^+/+ MEFs [5] = assay: Autophagosomes per cell by electron microscopy; assay type: cell-based, mouse; details: rapamycin 50 nM
Procedure: (§4) Cell culture monolayers were fixed for 15 min at 4° C. with PAF 4% and 2.5% glutaraldehyde in 125 mM cacodylate buffer. The monolayers were detached by rubber and centrifuged at high speed. The pellet was post-fixed (1 hour) with 2% OsO4 in 125 mM cacodylate buffer, was washed, dehydrated and embedded in Epon. Conventional thin sections were collect on uncoated grids, stained with uranil and lead citrate and examined in a Leo912 electron microscope.

Pkd1^−/− MEFs [6] = assay: Autophagosomes per cell by electron microscopy / autophagy; assay type: cell-based, mouse; details: rapamycin 50 nM
Procedure: as §4

[7] = 2DG 500 mg/kg daily P6 to P8, genotype not stated
[8] = 2DG 500 mg/kg daily P6 to P8, treated vs untreated mutant kidneys
[9] = cystic kidneys treated with 2DG

SMILES: O=CC[C@@H](O)[C@H](O)[C@H](O)CO [2DG, 2-deoxyglucose]
- body weight [1]: did not alter
- kidney weight [1]: did not affect
- proliferation index in the cystic kidneys (Ki67 assay) (Pkd1^flox/−:Ksp-Cre mice; 2DG 500 mg/kg daily P6 to P8, vs vehicle (NaCl)): decreased; also recorded: reduced
- proliferation rates in the cyst lining epithelium (Ki67) (Pkd1^flox/−:Ksp-Cre mice; 2DG 500 mg/kg daily P6 to P8, NaCl 28.48+/−5.39%): 10.53+/−4.38%
- brain weight normalized by body weight (Pkd1^flox/−:Ksp-Cre mice; [7]): did not showed effect; also recorded: do not change
- liver weight normalized by body weight (Pkd1^flox/−:Ksp-Cre mice; [7]): did not showed effect; also recorded: do not change
- body weight (Pkd1^flox/−:Ksp-Cre mice; 2DG 500 mg/kg daily P6 to P8, mutant mice): did not alter; also recorded: do not change
- number of normal and dilated tubules (cystic index) (Pkd1^flox/−:Ksp-Cre mice; [8]): slightly reduced
- number of small cysts (cystic index) (Pkd1^flox/−:Ksp-Cre mice; [8]): significantly reduced
- ratio of kidney weight on body weight (Pkd1^flox/−:Ksp-Cre mice; 2DG 500 mg/kg daily subcutaneously P6 to P8, mutant mice, vs vehicle (NaCl)): effect of the treatment with the 2DG only on mutant animals; also recorded: significantly reduced
- number of cysts (cystic index) (Pkd1^flox/−:Ksp-Cre mice; [9]): significant decrease
- number of normal tubules (cystic index) (Pkd1^flox/−:Ksp-Cre mice; [9]): increased

SMILES: NC(=O)c1ncn([C@@H]2O[C@H](CO)[C@@H](O)[C@H]2O)c1N [AICAR, 5-aminoimidazole-4-carboxamide ribonucleoside]
- pAMPK levels (Pkd1^−/− MEFs [2]; AICAR (1 mM)): restored; also recorded: increased
- pERK (Pkd1^−/− MEFs [2]; AICAR (1 mM)): restored to baseline levels; also recorded: inhibited

SMILES: N#CC(=C(/N)Sc1ccccc1N)/C(C#N)=C(/N)Sc1ccccc1N [UO126]
- pAMPK (Pkd1^−/− MEFs [2]; 30 μM UO126 for 12 h): enhances
- pERK (Pkd1^−/− MEFs [2]; 30 μM UO126 for 12 h): restores normal
- pS6RP (Pkd1^−/− MEFs [2]; 30 μM UO126 for 12 h): restores normal
- pLKB1 levels (LKB1 phosphorylation at 5428) (Pkd1^−/− MEFs [2]; UO126, Pkd1^−/− MEFs): reduced
- pLKB1 levels (LKB1 phosphorylation at 5428) (Pkd1^+/+ MEFs [3]): reduced

SMILES: CN(C)C(=N)N=C(N)N [metformin]
- pAMPK levels (Pkd1^−/− MEFs [2]; metformin (2 mM)): restored; also recorded: increased
- pERK (Pkd1^−/− MEFs [2]; metformin (2 mM)): restored to baseline levels; also recorded: inhibited
- cyst expansion (PKD mouse model): effectively reduce

SMILES: CC[C@H]1/C=C/C=C/C[C@@H](C)[C@H](O)[C@@](C)(O)C(=O)[C@@H](C)[C@H](O)[C@@H](C)C(=O)[C@@H](C)[C@H](O)[C@@H](C)/C=C/C(=O)O[C@@H]2[C@H](C)[C@H](CC1)O[C@]1(CC[C@H](C)[C@H](C[C@@H](C)O)O1)[C@H]2C [oligomycin]
- ATP content (Pkd1^+/+ MEFs [4]): decreased

SMILES: CO[C@H]1C[C@@H]2CC[C@@H](C)[C@@](O)(O2)C(=O)C(=O)N2CCCC[C@H]2C(=O)O[C@H]([C@H](C)C[C@@H]2CC[C@@H](O)[C@H](OC)C2)CC(=O)[C@H](C)/C=C(\C)[C@@H](O)[C@@H](OC)C(=O)[C@H](C)C[C@H](C)/C=C/C=C/C=C/1C [rapamycin]
- number of autophagosomes per cells evaluated by EM (Pkd1^+/+ MEFs [5]): 2.87+/−0.55 a.u.
- number of autophagosomes per cells evaluated by EM (Pkd1^−/− MEFs [6]): 0.96+/−0.18 a.u.
